Assay [1] deals with formalin-induced pain. Nature of the assay: Formalin test, model of acute tonic pain. The assay is classed as in vivo, rat. The note with it: Automated Nociception Analyser, n=6-8. As to the method:
Male Sprague-Dawley rats are housed together in groups of three animals under standard conditions with unrestricted access to food and water. All experiments are conducted according to the ethical guidelines for investigations of experimental pain in conscious animals (Zimmerman, 1983)
Assessment of formalin-induced flinching behavior in normal, uninjured rats (body weight 150-180 g) was made with the use of an Automated Nociception Analyser (University of California, San Diego, USA). Briefly, this involved placing a small C-shaped metal band (10 mm wide×27 mm long) on the hindpaw of the rat to be tested. The rats (four rats were included in each testing session) were then placed in a cylindrical plexiglass observation chamber (diameter 30.5 cm and height 15 cm) for 20 min for adaptation purposes prior to being administered drug or vehicle according to the experimental paradigm being followed. After adaptation, individual rats were then gently restrained and formalin (5% in saline, 50 μl, s.c.) was injected into the plantar surface of the hindpaw using a 27G needle. Rats were then returned to their separate observation chambers, each of which were in turn situated upon an enclosed detection device consisting of two electromagnetic coils designed to produce an electromagnetic field in which movement of the metal band could be detected. The analogue signal was then digitised and a software algorithm (LabView) applied to enable discrimination of flinching behaviour from other paw movements. A sampling interval of 1 min was used and on the basis of the resulting response patterns 5 phases of nociceptive behaviour were identified and scored: first phase (P1; 0-5 min), interphase (Int; 6-15 min), second phase (P2; […]), phase 2A (P2A; 16-40 min) and phase 2B (P2B; 41-60 min).
Nociceptive behavior was also determined manually every 5 min by measuring the amount of time spent in each of four behavioral categories: 0, treatment of the injected hindpaw is indistinguishable from that of the contralateral paw; 1, the injected paw has little or no weight placed on it; 2, the injected paw is elevated and is not in contact with any surface; 3, the injected paw is licked, bitten, or shaken. A weighted nociceptive score, ranging from 0 to 3 was calculated by multiplying the time spent in each category by the category weight, summing these products, and dividing by the total time for each 5 min block of time. (Coderre et al., Pain 1993; 54: 43). On the basis of the resulting response patterns, […] of nociceptive behavior were identified and scored: first phase (P1; 0-5 min), interphase (Int; 6-15 min), second phase (P2; […]), phase 2A (P2A; 16-40 min) and phase 2B (P2B; 41-60 min). […]

The target in assay [2] is T1, hASIC1a (Homo sapiens, UniProt P78348).
T1 sequence (P78348 1-528): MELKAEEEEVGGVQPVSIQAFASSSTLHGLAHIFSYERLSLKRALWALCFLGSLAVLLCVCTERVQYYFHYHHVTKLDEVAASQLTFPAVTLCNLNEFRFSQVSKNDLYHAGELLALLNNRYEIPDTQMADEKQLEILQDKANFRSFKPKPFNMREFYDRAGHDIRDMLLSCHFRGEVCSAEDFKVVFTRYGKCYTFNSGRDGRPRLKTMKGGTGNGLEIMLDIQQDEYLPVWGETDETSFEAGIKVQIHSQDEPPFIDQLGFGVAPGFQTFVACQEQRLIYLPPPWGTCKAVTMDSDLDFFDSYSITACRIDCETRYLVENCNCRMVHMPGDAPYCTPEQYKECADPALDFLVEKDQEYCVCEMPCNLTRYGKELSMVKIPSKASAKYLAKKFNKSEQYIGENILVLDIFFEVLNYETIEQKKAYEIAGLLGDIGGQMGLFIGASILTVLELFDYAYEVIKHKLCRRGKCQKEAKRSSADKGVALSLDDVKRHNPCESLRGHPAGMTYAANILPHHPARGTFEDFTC
The assay can be described thus: Calcium-imaging (FLIPR, Fluo-4) of acid (MES)-induced calcium response in ASIC1a expressing HEK293 cells. The note with it: for IC50: calcium mobilization assay, MES-induced calcium response, HEK293, n=3-7; for inhibitory effect on acid-induced hASIC1a activity (dose-response curve): HEK293 transfected with hASIC1a, intracellular calcium, increasing concentrations. On the set-up: expressed in transfected cells; host or cells: HEK293. In kind it is cell-based. As to the method: ASIC1a expressing HEK293 cells are grown in culture medium (DMEM with 10% FBS), in polystyrene culture flasks ([…]) at 37° C. in a humidified atmosphere of 5% CO2. Confluency of cells should be 80-90% on day of plating. Cells are rinsed with 10 ml of PBS and re-suspended by addition of culture medium and trituration with a 25 ml pipette.
The cells are seeded at a density of approximately 1×10^6 cells/ml (100 μl/well) in black-walled, clear bottom, 96-well plates pre-treated with 10 mg/l poly-D-lysin (75 μl/well for ≧30 min). Plated cells were allowed to proliferate for 24 h before loading with dye.
Fluo-4/AM (1 mg, Molecular Probes) is dissolved in 912 μl DMSO. The Fluo-4/AM stock solution (1 mM) is diluted with culture medium to a final concentration of 2 μM (loading solution).
The culture medium is aspirated from the wells, and 50 μl of the Fluo-4/AM loading solution is added to each well. The cells are incubated at 37° C. for 30 min.
After the loading period, the loading solution is aspirated and the cells are washed twice with 100 μl modified Assay Buffer (145 mM NaCl, 5 mM KCl, 5 mM CaCl2, 1 mM MgCl2, 10 mM HEPES, pH 7.4) to remove extracellular dye. Following the second wash, 100 μl modified Assay Buffer is added to each well and the fluorescence is measured in FLIPR™ or FlexStation™ (Molecular Devices, USA), or any other suitable equipment known to the skilled in the art.
Temperature: Room temperature (20-22° C.)
First addition: 50 μl test solution at a rate of 30 μl/sec and a starting height of 100 μl.
Second addition: 50 μl MES solution (20 mM, 5 mM final concentration) at a rate of 35 μl/sec and a starting height of 150 μl.
Reading intervals: pre-incubation—10 sec×7 and 3 sec×3 antagonist phase—3 sec×17 and 10 sec×12
Addition plates (compound test plate and MES plate) are placed on the right and left positions in the FLIPR tray, respectively. Cell plates are placed in the middle position and the ASIC1a program is effectuated. FLIPR will then take the appropriate measurements in accordance with the interval settings above. Fluorescence obtained after stimulation is corrected for the mean basal fluorescence (in modified Assay Buffer).
The MES-induced peak calcium response, in the presence of test substance, is expressed relatively to the MES response alone. Test substances that block the MES-induced calcium response are re-tested in triplicates. Confirmed hits are picked for further characterization by performing full dose-response curves to determine potency of each hit compound as represented by the IC50 values (i.e., the concentration of the test substance which inhibits 50% of the MES-induced calcium response; see, for example, FIGS. 1A, 1B and 1C, and FIGS. 13A and 13B).
On the technique in general: Calcium assays in cells follow changes in intracellular calcium, usually with a dye or a luminescent sensor.

For assay [3], the target named is T1, hASIC1a. Nature of the assay: Whole-cell voltage clamp of pH-evoked response of human ASIC1a stably transfected in CHO cells. In kind it is cell-based. On the set-up: expressed in transfected cells. The note with it: for effect on proton-gated currents from CHO cells expressing hASIC1a: 1 μM, voltage clamp. As to the method:
FIG. 3 illustrates the inhibitory effect of Compound A on acid-evoked activation of human ASIC1a stably transfected in CHO cells. […] In this example, the size of the pH-evoked response was determined by measuring the area under the curve of the response (total charge transfer) and normalized to the control response. FIG. 3B depicts an example of an hASIC1a current (whole cell voltage clamp, −60 mV) evoked by a pH 6.8-buffered solution (from pH 7.4) in the presence or absence of Compound A (3 μM).
These endogenous proton-activated inward currents were recorded in the presence and absence of Compound J (1 μM) or Compound K (1 μM) using the whole cell configuration of the patch clamp method (voltage clamp mode).
All experiments are performed at room temperature (20-25° C.) in voltage clamp using conventional whole cell patch clamp methods (Neher, E., et al. (1978) Pfluegers Arch 375:219-228).
Coverslips with the cells are transferred to a 15 μl experimental chamber mounted on the stage of an inverted microscope (IMT-2, Olympus) supplied with Nomarski optics. Cells are continuously superfused with extracellular saline at a rate of 2.5 ml/min. After giga-seal formation, the whole cell configuration is attained by suction. The cells are held at a holding voltage of −60 mV and at the start of each experiment the current is continuously measured for 45 s to ensure a stable baseline. Solutions of low pH (<7) are delivered to the chamber through a custom-made gravity-driven flowpipe, the tip of which is placed approximately 50 μm from the cell. Application is triggered when the tubing connected to the flowpipe is compressed by a valve controlled by the Pulse-software. Initially, low pH (in general, pH 6.5) is applied for 5 s every 60 s. The sample interval during application is 5501s. After stable responses are obtained, the extracellular saline as well as the low-pH solution are switched to solutions containing the compound to be tested. The compound is present until responses of a repeatable amplitude are achieved. Current amplitudes are measured at the peak of the responses, and effect of the compounds is calculated as the amplitude at compound equilibrium divided by the amplitude of the current evoked by the pulse just before the compound was included.
The following salt solutions are used: extracellular solution (mM): NaCl (140), KCl (4), CaCl2 (2), MgCl2 (4), HEPES (10, pH 7.4); intracellular solution (mM): KCl (120), KOH (31), MgCl2 (1.785), EGTA (10), HEPES (10, pH 7.2). In general, compounds for testing are dissolved in 50% DMSO at 500 fold the highest concentration used.
Similar findings are shown in FIG. 3 with the human ASIC1a stably transfected in CHO cells. FIG. 3A compares the dose-response relationship between Compound A and amiloride [determined by measuring the area under the curve of the response (total charge transfer) and normalized to the control response]. […] FIGS. 14A and 14B show similar results for Compounds J and K.

In general, IC50 refers to the concentration needed to halve the response being measured.

Turning to `CCN1CCc2c(-c3cc(F)ccc3OC)cc3c(c2C1)NC(=O)/C3=N/O` [Compound B, 5-(5-fluoro-2-methoxyphenyl)-6,7,8,9-tetrahydro-3-(hydroxyimino)-8-ethyl-1H-pyrrolo[3,2-h]isoquinoline-2(3H)-one], in assay [1], the “pain intensity as evaluated by the flinching behavior” value is on record as “dose-dependent reduction of the pain intensity”. In assay [2], the IC50 is 20 to 30 nM.

Regarding `CCN1CCc2c(-c3cc(C)ccc3C)cc3c(c2C1)NC(=O)/C3=N/O` [Compound F, 5-(2,5-dimethylphenyl)-6,7,8,9-tetrahydro-3-(hydroxyimino)-8-ethyl-1H-pyrrolo[3,2-h]isoquinoline-2(3H)-one], the “inhibitory effect on acid-induced hASIC1a activity (dose-response curve)” value (from here on “inhibitory effect”) in assay [2] is “dose-dependently inhibit”.

As for `CCN1CCc2c(-c3cc(Cl)ccc3OC)cc3c(c2C1)NC(=O)/C3=N/O` [Compound G, 5-(5-chloro-2-methoxyphenyl)-6,7,8,9-tetrahydro-3-(hydroxyimino)-8-ethyl-1H-pyrrolo[3,2-h]isoquinoline-2(3H)-one], the “inhibitory effect” value in assay [2] was “dose-dependently inhibit”.

With `COc1ccc(Cl)cc1-c1cc2c(c3c1CCN(C)C3)NC(=O)/C2=N/O` [Compound C, 5-(5-chloro-2-methoxyphenyl)-6,7,8,9-tetrahydro-3-(hydroxyimino)-8-methyl-1H-pyrrolo[3,2-h]isoquinoline-2(3H)-one], the IC50 in assay [2] lay within 200 to 300 nM.

Consider `CCN1CCc2c(-c3cc(C)cc(C)c3)cc3c(c2C1)NC(=O)/C3=N/O` [Compound E, 5-(3,5-dimethylphenyl)-6,7,8,9-tetrahydro-3-(hydroxyimino)-8-ethyl-1H-pyrrolo[3,2-h]isoquinoline-2(3H)-one], for which, in assay [2], the “inhibitory effect” value is listed as “dose-dependently inhibit”.

With `Cc1cc(C)cc(-c2cc3c(c4c2CCN(C)C4)NC(=O)/C3=N/O)c1` [Compound D, 5-(3,5-dimethylphenyl)-6,7,8,9-tetrahydro-3-(hydroxyimino)-8-methyl-1H-pyrrolo[3,2-h]isoquinoline-2(3H)-one], in assay [2], the IC50 fell in the range of 250 to 350 nM.

With `CCOc1ccccc1-c1cc2c(c3c1CCN(CC)C3)NC(=O)/C2=N/O` [Compound K, 5-(2-ethoxy-phenyl)-8-ethyl-6,7,8,9-tetrahydro-1H-pyrrolo[3,2-h]isoquinoline-2,3-dione 3-oxime], the IC50 in assay [2] was 300 to 1700 nM. For the same molecule, the “effect on proton-gated currents from CHO cells expressing hASIC1a” value in assay [3] is listed as “inhibitory effects”.

For `CCN1CCc2c(-c3ccccc3OC)cc3c(c2C1)NC(=O)/C3=N/O` [Compound J, 8-ethyl-5-(2-methoxy-phenyl)-6,7,8,9-tetrahydro-1H-pyrrolo[3,2-h]isoquinoline-2,3-dione 3-oxime], the half-maximal inhibitory concentration (IC50) in assay [2] was in the range of 100 to 700 nM. Moreover, the “effect on proton-gated currents from CHO cells expressing hASIC1a” value in assay [3] is recorded as “inhibitory effects”.

For the molecule `N=C(N)NC(=O)c1nc(Cl)c(N)nc1N` [amiloride, reference compound], the “effect on size of human ASIC1a pH-evoked response (area under the curve, total charge transfer, normalized to control)” value in assay [3] (CHO cells, -60 mV, pH 6.8 from pH 7.4) is reported as “reduce the human ASIC1a pH-evoked response in a dose-dependent manner”.

(Values after patent US7718641B2, “Pyrrolo [3,4-H] isoquinoline compounds and methods for modulating gated ion channels” (Aros Pharma ApS, priority 2005, dated 2010).)
